Test results from article PMC8157578 (Antioxidants, 2021).
“Also recorded” adds a separate entry of the source.

Columns and labels:
HeLa cells [1] = test: Labile iron pool (LIP) determination with calcein-AM in iron-overloaded HeLa cells, flow cytometry; format: cell-based, human; details: for Fluorescence intensity of calcein-AM (LIP level): 15 min, Fe(II) alone 0.63-0.64
Experimental: HeLa cells (10^6/mL) were loaded by incubation with 20 μM Fe(II) for 2 h at 37 °C. Subsequently, cells were collected by centrifugation (1000 rpm for 5 min) and incubated with 0.5 μM calcein-AM for 15 min at 37 °C in a D’hanks buffer of pH 7.4. Cells were then washed twice by D’hanks buffer (pH 7.4) and incubated with or without CAPE and its analogues. The fluorescence was monitored by both flow cytometry (BD FACS Caliber) and a CLSM (Leica TCS SP). The experiment was repeated three times.
Figure 3 Effect of CAPE and its analogues on the LIP level in iron-overloaded cells, as measured by flow cytometry (A–D). HeLa cells were pretreated with 20 μM Fe(II) for 2 h and then incubated with calcein-AM. After 15 min, cells were washed and incubated with or without CAPE and its analogues for 15 min. The fluorescence intensity of cells was measured by flow cytometry. Significant differences from the iron-overloaded group are marked with * p < 0.05, ** p < 0.01, and *** p < 0.001. The experiment was repeated three times.

[2] = Cyclic voltammetry of Fe(III) chelated by ligand; format: physicochemical; details: 100 mM PB pH 7.4, SCE reference, 2 mV/s; Fe(III) alone approximately −0.65 V
Experimental: CV was performed in 100 mM PB (pH 7.4) on a Princeton Applied Research (VersaSTAT3) potentiostat with a Pt wire as the counter electrode, a saturated calomel electrode (SCE) as the reference electrode, and a glassy carbon electrode (5 mm in diameter) as the working electrode. The scan rate was 2 mV/s.

HeLa cells [3] = test: Labile iron pool (LIP) determination with calcein-AM in iron-overloaded HeLa cells, flow cytometry; format: cell-based, human; details: 500 μM compound alone, no iron
[4] = Calcein fluorescence quenching by Fe(III)–citrate, competition by ligand; format: binding; details: 0.1 μM calcein, 100 μM Fe(III)–citrate, 100–500 μM compound
Experimental: In the presence of calcein, mixtures of CAPE and Fe(III)/Fe(II) with different concentrations in 20 mM HEPES (pH 7.4) were used for fluorescence detection (Ex: 488 nm; Em: 515 nm). Fluorescence spectra were recorded using a Cary Eclipse fluorescence spectrophotometer (Varian, Palo Alto, CA, USA).
Figure 7 Effect of CAPE and its analogues on the fluorescence intensity of calcein–Fe(III)–citrate. (A,B) the fluorescence quenching of calcein by Fe(III)–citrate diminished in a (CAPE/CA:Fe(III)) ratio-dependent manner. […] The reaction mixture contained 0.1 μM calcein, 100 μM Fe(III)–citrate, and indicated concentrations of CAPE or its analogues (100–500 μM). The experiments were repeated three times, and only typical spectra are presented.

HeLa cells [5] = test: Immunofluorescence analysis of intracellular γ-H2AX generation in iron-overloaded HeLa cells (with H2O2); format: cell-based, human; details: for Fluorescence intensity of γ-H2AX: Fe(II)-H2O2 alone 2.86±0.64; for Concentration that significantly inhibits cellular DNA damage induced by iron overload (with H2O2) / Inhibition of cellular DNA damage induced by iron overload (with H2O2), in words: γ-H2AX, HeLa; for Concentration that significantly inhibits cellular DNA damage induced by iron overload (with H2O2): pre-treatment
Experimental: The immortalized human cervical carcinoma HeLa cell line used in this study was obtained from the Cell Resource Center, Peking Union Medical College. The cell line was checked to be free of mycoplasma contamination by PCR and culture. Its species origin was confirmed with PCR. The identity of the cell line was authenticated with STR profiling (FBI, CODIS). HeLa cells were cultured in a DMEM medium (4 mM L-glutamine, 4500 mg/L glucose, and no sodium pyruvate) with 10% fetal bovine serum (FBS) and 1% penicillin–streptomycin at 37 °C under a 5% CO2 atmosphere.
HeLa cells (10^4/well) were loaded by incubation with 20 μM Fe(II) for 2 h at 37 °C. […] For a detailed experimental procedure, please refer to the Supplementary Materials and our previous report. The experiment was repeated three times. The observation of the fluorescence of γ-H2AX in HeLa cells was conducted with a confocal laser scanning microscope (CLSM) (Leica TCS SP). Thirty cells in each group were randomly selected in different microscopic fields for quantitative detection. In detail, each well was equally divided into nine fields and numbered sequentially from the top right corner. Four fields were randomly selected according to a random number table. Thirty cells were then randomly selected from these four fields. All images were analyzed blind regarding exposure parameters, which were coded by one person and read by another who was blinded to the code. The fluorescence intensity of the γ-H2AX signal on selected images was automatically analyzed using the Image-J software. The Statistical Product and Service Solutions (SPSS 21) program was employed to analyze the data through ANOVA. Significant difference from iron-overloaded group are marked with * p < 0.05, ** p < 0.01, and *** p < 0.001.
(§1) 2.1 Immunofluorescence analysis of intracellular γ-H2AX generation in Hela cells
(§2) Fixed cells were permeabilized with 0.25% Triton-X100 in PBS for 10 min and blocked in 10%
(§3) normal goat serum, 0.1% tween 20 in PBS for 1 hour. The cells were incubated with primary
(§4) monoclonal antibody, γ-H2AX (Ser139, 20E3, Rabbit, mAb #9718) (1:600) overnight at 4°C, and then
(§5) stained secondary antibodies, anti-rabbit Alexa-488 and anti-mouse (Cell Signaling Technology) for
(§6) 1 hour. After Hoechst 33342 (10 μg/mL) staining for 2 min, dishes were mounted in ProLong™ Gold
(§7) Antifade Mountant (Invitrogen™) and stored at 4°C in the dark before confocal laser-scanning by
(§8) Broadband Confocal Leica TCS SP5. The CLSM images were obtained with the following excitation
respectively. Cells were washed 3 times with PBS (200 μL/well) at intervals. […]

plasmid pBR322 DNA = test: Plasmid DNA strand breakage induced by Fe(III)–citrate/ascorbate/H2O2, agarose gel electrophoresis; format: biochemical; details: for Protective effect against iron-mediated DNA damage through inhibiting •OH generation, in words: isolated DNA, Fe(III) and Fe(II) systems, Figures S9–S12
Experimental: Plasmid DNA agarose gel electrophoresis was employed to investigate protective effect of CAPE and its analogues against DNA strand breakage induced by an iron-mediated system. For experimental procedure details, please refer to the Supplementary Materials.
Figure 4 Protective effect of CAPE and its analogues against Fe(III)–citrate–ascorbate–H2O2-induced DNA damage. […] The reaction mixture contained 20 μM Fe(III)–citrate, 10 μM ascorbate, and 200 μM H2O2, as well as the indicated concentrations of CAPE and its analogues. The experiments were repeated three times, and only typical images are presented. […]
(§9) The experiments were conducted via incubation of plasmid pBR322 DNA (5 μg/mL) at 37 °C for
(§10) 30 min in Chelex-treated HEPES buffer (100 mM, pH 7.4) with the iron-containing systems, in the
absence or presence of the indicated concentrations of CAPE and its analogues. […]

[6] = 1-octanol/phosphate buffer partitioning, shake-flask method; format: physicochemical; details: 1-octanol / 100 mM phosphate buffer pH 7.4, shake-flask
[7] = Dissolved oxygen consumption by ascorbic acid/Fe(III)–citrate; format: biochemical; details: 100 μM Fe(III)-citrate, 1 mM ascorbate, ratio 5:1
Experimental: as §1, §2, §3, §4, §5, §6, §7, §8
respectively. Cells were washed 3 times with PBS (200 μL/well) at intervals.
as §9, §10
absence or presence of the indicated concentrations of CAPE and its analogues.
2.3 Electron spin resonance (ESR) spin-trapping studies
ESR spectra were recorded at room temperature in a Bruker ESR 300 spectrometer. Typical […]
The consumption of O2 was measured by Orion 3 dissolved oxygen meter (Thermo Scientific, […]
Corona Needle current was 3000 nA. The size of data points was recorded in 4 M format. […]

[8] = ESR spin-trapping (DMPO) of •OH generated by Fe(III)–citrate–ascorbate–H2O2; format: biochemical; details: 100 μM Fe(III)–citrate, 100 μM ascorbate, 1 mM H2O2
Experimental: The basic system used in this study consisted of Fe(III)/Fe(II), ascorbate, H2O2, and the spin trapping agent DMPO (100 mM) in 20 mM HEPES (pH 7.4) with or without CAPE and its analogues.
The reaction mixture contained 100 μM Fe(III)–citrate, 100 μM ascorbate, and 1 mM H2O2, as well as the indicated concentrations of CAPE and its analogues. The experiments were repeated three times, and only typical spectra are presented.
spectrometer parameters were as follows: scan range, 100 G; field set, 3470 G; time constant, 200 ms;
scan time, 100 s; modulation amplitude, 1.0 G; modulation frequency, 100 kHz; receiver gain,

[9] = 20 μM Fe(III)–citrate, 10 μM ascorbate, 200 μM H2O2

| SMILES | Fluorescence intensity of calcein-AM (LIP level) (HeLa cells [1]; 20 μM Fe(II) + 50 μM compound) | Fluorescence intensity of calcein-AM (LIP level) (HeLa cells [1]; 20 μM Fe(II) + 200 μM compound) | Fluorescence intensity of calcein-AM (LIP level) (HeLa cells [1]; 20 μM Fe(II) + 500 μM compound) | Concentration that significantly regenerates calcein fluorescence (decreases LIP level) (HeLa cells [1]; iron-overloaded HeLa cells) [µM] | Reduction potential of Fe(III) chelated by compound [2] [V] | Fluorescence intensity of calcein-AM (LIP level) (HeLa cells [3]) | Inhibition of calcein fluorescence quenching by Fe(III)–citrate, in words [4] | Fluorescence intensity of γ-H2AX (HeLa cells [5]; Fe(II)-H2O2 + 50 μM compound) | Fluorescence intensity of γ-H2AX (HeLa cells [5]; Fe(II)-H2O2 + 100 μM compound) | Fluorescence intensity of γ-H2AX (HeLa cells [5]; Fe(II)-H2O2 + 200 μM compound) | Fluorescence intensity of γ-H2AX (HeLa cells [5]; Fe(II)-H2O2 + 500 μM compound) | Concentration that significantly inhibits cellular DNA damage induced by iron overload (with H2O2) (HeLa cells [5]) [µM] | Protective effect against Fe(III)–citrate–ascorbate–H2O2-induced DNA damage, in words (plasmid pBR322 DNA; [9]) | Concentration range with the stated inhibition of Fe(III)-citrate-Vc-H2O2 induced DNA damage (plasmid pBR322 DNA; 20 μM Fe(III)–citrate, 10 μM ascorbate, 200 μM H2O2, CAPE significantly, CA slightly) [µM] | LogKow [6] | Protective effect against iron-mediated DNA damage through inhibiting •OH generation, in words (plasmid pBR322 DNA) | Effect on O2 consumption induced by ascorbic acid/Fe(III)–citrate, in words [7] | Effect on calcein fluorescence (LIP level), in words (HeLa cells [1]; iron-overloaded HeLa cells, 50–500 μM) | Inhibition of cellular DNA damage induced by iron overload (with H2O2), in words (HeLa cells [5]) | Inhibitory effect against Fe(III)-citrate-Vc-H2O2 induced •OH generation, in words [8] |
| --- | --- | --- | --- | --- | --- | --- | --- | --- | --- | --- | --- | --- | --- | --- | --- | --- | --- | --- | --- | --- |
| O=C(O)/C=C/c1ccc(O)c(O)c1 [CA, caffeic acid] | 0.63±0.02 Fold of Control | 0.64±0.01 Fold of Control | 0.70±0.02 Fold of Control | 500 | −0.76 | 1.00±0.02 Fold of Control | weaker inhibition | 3.13±0.42 Fold of Control | 3.09±0.51 Fold of Control | 2.82±0.43 Fold of Control | 1.73±0.43 Fold of Control | 500 | lower than CAPE; also recorded: slightly inhibited | 20 to 200 |  |  |  |  |  |  |
| CCOC(=O)/C=C/c1ccc(O)c(O)c1 [CAEE, caffeic acid ethyl ester] |  |  |  | 50 to 500 | −0.99 |  |  |  |  |  |  | 50 to 500 |  |  | 1.51 ± 0.03 | weaker than CAPE |  |  |  |  |
| COC(=O)/C=C/c1ccc(O)c(O)c1 [CAME, caffeic acid methyl ester] |  |  |  | 200 to 500 | −0.79 |  |  |  |  |  |  | 100 to 500 |  |  | 1.27 ± 0.06 | weaker than CAPE |  |  |  |  |
| CCOC(=O)/C=C/c1ccc(O)c(OC)c1 [EF, ethyl ferulate] | 0.65±0.03 Fold of Control | 0.62±0.02 Fold of Control | 0.61±0.02 Fold of Control |  |  | 0.99±0.01 Fold of Control | no inhibitory effects |  |  |  |  |  | no significant protective effect |  | 1.38 ± 0.02 |  | no significant effects | no effect | no significant inhibition | no inhibitory effect |
| c1cnc2c(c1)ccc1cccnc12 [OP, 1,10-phenanthroline, reference compound] |  |  |  |  |  |  |  |  |  |  |  |  |  |  |  |  |  |  | effective |  |
